Patent publication US20070213291A1, “Therapeutically useful synthetic oligonucleotides” (priority 1999, published 2007)
Where “and” joins values, the source holds several entries; their conditions need not be identical. Identical values can stand only once.

Assays:
Assay type in all cases: cell-based
[1] = test system: Jurkat human leukemia T cells; experiment: Cell cycle stage in Jurkat cells (propidium iodide flow cytometry); conditions: 24 h
Outline: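 Phase distribution (G0/G1, early, mid and late S, G2/M) came from flow cytometry with doublet discrimination on propidium iodide-stained nuclei. Jurkat cells were given 24 h exposure to 2–45-base oligonucleotides, or at 1×10^6 cells/ml to single 6-base GT or AC strands heated 10 min at 65 °C or 1:1 hybridized duplex.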

[2] = test system: THP-1 human acute monocytic leukemia cells; experiment: Cytokine production by THP-1 cells (ELISA); conditions: THP-1, 1×10^6 cells, 100 μg/ml, 48 h; for ↑ IL-12 (fold increase treated vs control cells): p70 complex and free p40
Outline: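 Read-out is fold increase in supernatant cytokine versus control cells, measured by ELISA (IL-12 ELISA counts p70 complex plus free p40). Unless noted, sequences were tested at 100 μg/ml on 1×10^6 cells, incubated 48 h, 37° C, 5% CO2.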

[3] = test system: THP-1 human acute monocytic leukemia cells; experiment: Inhibition of THP-1 cell proliferation (MTT); conditions: 100 μg/ml, 48 h, 1.6×10^6 cells/ml
Method: (§1) Cells were seeded in 6 (1 ml/well), 24 (0.5 ml/well) or 96 (0.1 ml/well) well flat-bottom microplates and were maintained at 37° C. in a 5% CO2 atmosphere. Unless stated otherwise, 2.5×10^5 cells/ml were incubated with 0 μg/ml (control) and 100 μg/ml (treated) of 2 to 45 base sequences containing A, C, G and T for 48 h.
(§2) Cell proliferation was measured using dimethylthiazol-diphenyl-tetrazolium (MTT) reduction (Mosman et al. J. Immunol. Methods 65:55, 1983). MTT was measured at a wavelength of 570 nm using a multiplate spectrophotometer reader (ELX800, Bio-TEK Instruments Inc., Winooski, Vt.).
THP-1 acute monocytic leukemia cells are a p53 null human suspension tumor model. THP-1 cells (1.6×10^6 cells/ml) were incubated with 6 base GT sequences (Table 10).

[4] = test system: MCF-7 human breast cancer cells; experiment: Inhibition of MCF-7 cell proliferation (MTT); conditions: for % INHIBITION of MCF-7 human breast cancer cell proliferation: 100 μg/ml, 48 h, 5×10^5 cells/ml
Outline: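 Cells at 2.5×10^5 cells/ml (GT 3- and 6-base series at 5×10^5 cells/ml) treated with 100 μg/ml of 2-45-base oligonucleotide sequences versus untreated control for 48 h at 37 °C, 5% CO2. Proliferation read by MTT reduction at 570 nm.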

[5] = test system: HL-60 human promyelocytic leukemia cells; experiment: Inhibition of HL-60 cell proliferation (MTT); conditions: 100 μg/ml, 48 h
Method: as §1, §2
HL-60 promyelocytic leukemia cells are a p53 mutated human suspension tumor model. HL-60 cells were incubated with 6 base GT sequences (Table 6).

[6] = test system: PC-3 human prostate cancer cells; experiment: Inhibition of PC-3 cell proliferation (MTT); conditions: 100 μg/ml, 48 h, 5×10^5 cells/ml
Outline: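 PC-3 cells (5×10^5 cells/ml) exposed 48 h at 37 °C to 3- and 6-base GT oligonucleotide sequences at 100 μg/ml versus untreated control. Proliferation read by MTT reduction at 570 nm.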

[7] = test system: LNCaP human prostate cancer cells; experiment: Inhibition of LNCaP cell proliferation (MTT); conditions: 100 μg/ml, 48 h, 5×10^5 cells/ml
Outline: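 Cells (2.5×10^5 or 5×10^5 cells/ml) exposed to 100 μg/ml of 2–45 base A/C/G/T sequences, including 6-base GT sequences, versus untreated control, 48 h at 37 °C, 5% CO2. Proliferation read by MTT reduction at 570 nm.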

[8] = test system: Jurkat human leukemia T cells; experiment: Inhibition of Jurkat human leukemia T cell proliferation (MTT reduction); conditions: for % INHIBITION of Jurkat proliferation at suboptimal concentration: 5.0 μg/ml of each 6 base sequence, alone or two together; for % INHIBITION of Jurkat human leukemia T cell proliferation: 100 μg/ml sequence, 48 h, 2.5×10^5 cells/ml
Outline: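 Read-out is MTT absorbance at 570 nm after 48 h. Sequences of 2 to 45 bases (A, C, G, T) tested at 100 μg/ml against untreated control, with 2.5×10^5 Jurkat cells/ml held at 37° C under 5% CO2.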

rhesus monkey PBMCs = experiment: Cytokine production by rhesus monkey PBMC (ELISA); conditions: PBMC of 4 healthy rhesus monkeys, 100 μg/ml, 48 h
Outline: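 Peripheral blood mononuclear cells taken from 4 healthy rhesus monkeys were cultured at 1×10^6 cells with 100 μg/ml of each test sequence for 48 h at 37° C. under 5% CO2. Cytokine levels in 100 μl of supernatant were quantified in pg/ml by commercial ELISA and reported as fold increase over untreated control cells.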

[9] = Jurkat 1×10^6 cells/ml, sequences heated 10 minutes at 65° C.
[10] = 5-fluorouracil 0.1 μg/ml, alone or with sequence at 1.0 μg/ml
[11] = 5-fluorouracil 1.0 μg/ml, alone or with sequence at 1.0 μg/ml
[12] = 5-fluorouracil 10.0 μg/ml, alone or with sequence at 1.0 μg/ml
[13] = sequence at 1.0 μg/ml, 5-fluorouracil 0.0 μg/ml

For GTGTGT [SEQ ID NO:10], the “% of cells in phase: G0/G1” value ([1]; Jurkat, 100 μg/ml) was 30.8%, the “% of cells in phase: G2/M” value ([1]; Jurkat, 100 μg/ml) was 0.3% and the “% of cells in phase: SE” value ([1]; Jurkat, 100 μg/ml) was 41.9%. For the same sequence, the “% of cells in phase: SL” value ([1]; Jurkat, 100 μg/ml) was 10.2%, the “% of cells in phase: SM” value ([1]; Jurkat, 100 μg/ml) was 16.8% and the “Arrest (cell cycle)” value ([1]; Jurkat, 100 μg/ml) was “End SE”. The “↑ IL-6 (fold increase treated vs control cells)” value [2] was 5.0x, the “↑ IL-12 (fold increase treated vs control cells)” value [2] was 2.2x and the “% INHIBITION of THP-1 human acute monocytic leukemia cell proliferation” value [3] was 11%. For the same sequence, the “% INHIBITION of MCF-7 human breast cancer cell proliferation” value [4] was 31%, the “% INHIBITION of HL-60 human promyelocytic leukemia cell proliferation” value [5] was 13% and the “% INHIBITION of PC-3 human prostate cancer cell proliferation” value [6] was 37%. The “% INHIBITION of LNCaP human prostate cancer cell proliferation” value [7] was −4%, the “% INHIBITION of Jurkat proliferation at suboptimal concentration” value (“% INHIBITION … at suboptimal concentration” below) [8] was 2% and the “% INHIBITION of Jurkat human leukemia T cell proliferation” value [8] was 44% and 48%. For the same sequence, the “IL-10 fold increase: mean +/− SD” value (rhesus monkey PBMCs) was 1.3 +/− 0.1 fold increase, the “IL-12 fold increase: mean +/− SD” value (rhesus monkey PBMCs) was 10.7 +/− 4.1 fold increase and the “TNF-alpha fold increase: mean +/− SD” value (rhesus monkey PBMCs) was 16.1 +/− 4.2 fold increase.
GGGTGG [SEQ ID NO:25] was tested, and the “% cells in phase: G0/G1” value [1, 9] was 28.0%, the “% cells in phase: G2/M” value [1, 9] was 0.9% and the “% cells in phase: SE” value [1, 9] was 45.8%. The “% cells in phase: SL” value [1, 9] was 11.3%, the “% cells in phase: SM” value [1, 9] was 14.0% and the “Arrest (cell cycle)” value [1, 9] was “induced arrest at the end of the SE phase of the cell cycle”. For the same sequence, the “% of cells in phase: G0/G1” value ([1]; Jurkat, 100 μg/ml) was 28.5%, the “% of cells in phase: G2/M” value ([1]; Jurkat, 100 μg/ml) was 0.0% and the “% of cells in phase: SE” value ([1]; Jurkat, 100 μg/ml) was 46.3%. For the same sequence, the “% of cells in phase: SL” value ([1]; Jurkat, 100 μg/ml) was 10.7%, the “% of cells in phase: SM” value ([1]; Jurkat, 100 μg/ml) was 14.6% and the “Arrest (cell cycle)” value ([1]; Jurkat, 100 μg/ml) was “End SE”. For the same sequence, the “↑ IL-6 (fold increase treated vs control cells)” value [2] was 3.1x, the “↑ IL-12 (fold increase treated vs control cells)” value [2] was 2.3x and 2.0x and the “↑ IL-12 (fold increase treated vs control cells)” value ([2]; listed as GoGoGoToGoGo) was 2.0 x. The “% INHIBITION of THP-1 human acute monocytic leukemia cell proliferation” value [3] was 15%, the “% INHIBITION of MCF-7 human breast cancer cell proliferation” value [4] was 41% and the “% INHIBITION of MCF-7 proliferation, 5-Fluorouracil 0.1 μg/ml” value [4, 10] was 24%. The “% INHIBITION of MCF-7 proliferation, 5-Fluorouracil 1.0 μg/ml” value [4, 11] was 36%, the “% INHIBITION of MCF-7 proliferation, 5-Fluorouracil 10.0 μg/ml” value [4, 12] was 33% and the “potentiation of antineoplastic effect of 5-fluorouracil on MCF-7 cell proliferation” value ([4]; sequence 1.0 μg/ml, 0.1 μg/ml 5-fluorouracil) was “potentiated”. The “potentiation of antineoplastic effect of tamoxifen on MCF-7 cell proliferation” value ([4]; sequence 1.0 μg/ml, 0.1 μg/ml tamoxifen) was “potentiated”, the “% INHIBITION of MCF-7 proliferation, 5-Fluorouracil 0.0 μg/ml” value [4, 13] was 6% and the “% INHIBITION of MCF-7 proliferation, Tamoxifen 0.0 μg/ml” value ([4]; sequence at 1.0 μg/ml, tamoxifen 0.0 μg/ml) was 6%. For the same sequence, the “% INHIBITION of MCF-7 proliferation, Tamoxifen 0.1 μg/ml” value ([4]; tamoxifen 0.1 μg/ml, alone or with sequence at 1.0 μg/ml) was 21%, the “% INHIBITION of MCF-7 proliferation, Tamoxifen 1.0 μg/ml” value ([4]; tamoxifen 1.0 μg/ml, alone or with sequence at 1.0 μg/ml) was 24% and the “% INHIBITION of MCF-7 proliferation, Tamoxifen 10.0 μg/ml” value ([4]; tamoxifen 10.0 μg/ml, alone or with sequence at 1.0 μg/ml) was 31%. For the same sequence, the “% INHIBITION of HL-60 human promyelocytic leukemia cell proliferation” value [5] was 35%, the “% INHIBITION of PC-3 human prostate cancer cell proliferation” value [6] was 38% and the “% INHIBITION of LNCaP human prostate cancer cell proliferation” value [7] was 18%. For the same sequence, the “% INHIBITION … at suboptimal concentration” value [8] was 5%, the “% INHIBITION of Jurkat human leukemia T cell proliferation” value [8] was 60% and the “% INHIBITION of Jurkat proliferation, 5-Fluorouracil 0.1 μg/ml” value [8, 10] was 10%. For the same sequence, the “% INHIBITION of Jurkat proliferation, 5-Fluorouracil 1.0 μg/ml” value [8, 11] was 21%, the “% INHIBITION of Jurkat proliferation, 5-Fluorouracil 10.0 μg/ml” value [8, 12] was 40% and the “relative potency versus AGT SEQ ID NO:49” value ([8]; Jurkat proliferation, PHARM/PCS-4 Software) was 3.4 times. The “% INHIBITION of Jurkat proliferation, Cisplatin 0.1 μg/ml” value ([8]; cisplatin 0.1 μg/ml, alone or with sequence at 1.0 μg/ml) was 14%, the “% INHIBITION of Jurkat proliferation, Cisplatin 1.0 μg/ml” value ([8]; cisplatin 1.0 μg/ml, alone or with sequence at 1.0 μg/ml) was 38% and the “% INHIBITION of Jurkat proliferation, Cisplatin 10.0 μg/ml” value ([8]; cisplatin 10.0 μg/ml, alone or with sequence at 1.0 μg/ml) was 76%. The “potentiation of antineoplastic effect of 5-fluorouracil on Jurkat T cell proliferation” value ([8]; sequence 1.0 μg/ml, 0.1 and 1.0 μg/ml 5-fluorouracil) was “potentiated”, the “potentiation of antineoplastic effect of cisplatin on Jurkat T cell proliferation” value ([8]; sequence 1.0 μg/ml, 0.1 and 1.0 μg/ml cisplatin) was “potentiated” and the “% INHIBITION of Jurkat proliferation, 5-Fluorouracil 0.0 μg/ml” value [8, 13] was 0%. For the same sequence, the “% INHIBITION of Jurkat proliferation, Cisplatin 0.0 μg/ml” value ([8]; sequence at 1.0 μg/ml, cisplatin 0.0 μg/ml) was 0%, the “IL-10 fold increase: mean +/− SD” value (rhesus monkey PBMCs) was 1.0 +/− 0.1 fold increase and the “IL-12 fold increase: mean +/− SD” value (rhesus monkey PBMCs) was 10.6 +/− 4.7 fold increase. The “TNF-alpha fold increase: mean +/− SD” value (rhesus monkey PBMCs) was 12.5 +/− 5.2 fold increase.
In the case of TTGTTT [SEQ ID NO:26], the “% of cells in phase: G0/G1” value ([1]; Jurkat, 100 μg/ml) is reported as 32.6%, the “% of cells in phase: G2/M” value ([1]; Jurkat, 100 μg/ml) is reported as 32.4% and the “% of cells in phase: SE” value ([1]; Jurkat, 100 μg/ml) is reported as 11.5%. The “% of cells in phase: SL” value ([1]; Jurkat, 100 μg/ml) was 10.7%, the “% of cells in phase: SM” value ([1]; Jurkat, 100 μg/ml) was 12.8% and the “Arrest (cell cycle)” value ([1]; Jurkat, 100 μg/ml) was “END G2/M”. The “↑ IL-6 (fold increase treated vs control cells)” value [2] was 5.3 x, the “↑ IL-12 (fold increase treated vs control cells)” value [2] was 3.5x and 3.8x and the “% INHIBITION of THP-1 human acute monocytic leukemia cell proliferation” value [3] was 1%. For the same sequence, the “% INHIBITION of MCF-7 human breast cancer cell proliferation” value [4] was 20%, the “% INHIBITION of HL-60 human promyelocytic leukemia cell proliferation” value [5] was 16% and the “% INHIBITION of PC-3 human prostate cancer cell proliferation” value [6] was 18%. The “% INHIBITION of LNCaP human prostate cancer cell proliferation” value [7] was 22%, the “% INHIBITION … at suboptimal concentration” value [8] was −2% and the “% INHIBITION of Jurkat human leukemia T cell proliferation” value [8] was 34%. The “IL-10 fold increase: mean +/− SD” value (rhesus monkey PBMCs) was 1.0 +/− 0.1 fold increase and the “TNF-alpha fold increase: mean +/− SD” value (rhesus monkey PBMCs) was 2.1 +/− 1.0 fold increase.
